In patent US9303064B2, “Peptide inhibiting matrix metalloproteanases activity and use thereof” (CAREGEN CO., LTD., priority 2011, dated 2016):

Tested on: Hyaluronate lyase
Assay: Filler product injected into rat dorsal skin
Format: in vivo
Settings: 1-7 days, FIG. 6e
Protocol: FIG. 6e represents effects on residence times of filler products when the filler product containing hyaluronate lyase and the peptide (SEQ ID NO:2) is injected to rat dorsal skin. The effects were determined at intervals of 1-7 days.
Hyaluronate lyase was artificially put into a commercial filler product at a concentration of 100 ug to induce degradation of hyaluronic acids, and then 200 ug peptides were treated. […] An assay using GPC column and an in vivo experiment using rats are performed. Control group was treated with hyaluronate lyase, and treatment group was co-treated hyaluronate lyase and each peptide. When the filler product was injected into rat skin, the degradation of hyaluronic acids inside the filler was inhibited by the treatment of peptides (FIG. 6e).

In the case of MIPCYISSP (CG-Seperin) [SEQ ID NO:2], the “degradation of hyaluronic acids inside the filler injected into rat skin” value (filler with hyaluronate lyase and peptide) is reported as “hyaluronic acids degradation effect is excellent” and the “residence times of filler products” value (versus only filler products) is reported as “stayed for longer period”.
